Earlier results as cited in patent publication US20070099846A1, “Composition containing dipeptide of histidine and alanine for reducing uric acid and method for reducing uric acid using the dipeptide” (LYTONE ENTERPRISE, INC., priority 2003, published 2007).

Test system: peptidase and proteases excreted from pancreas or other digestive organs

Resistance against digestion by peptidase and proteases: resist against digestion
Compound: NCCC(=O)N[C@@H](Cc1cnc[nH]1)C(=O)O [carnosine, β-alanyl-L-histidine]
